{"source": "patent US20130072505A1", "about": "“6,9-Disubstituted Purine Derivatives and Their Use for Treating Skin” (priority 2006, published 2013)", "format_in_all_cases": "cell-based", "key": {"[1]": {"tested_on": "senescent human skin fibroblasts", "experiment": "treatment of senescent human skin fibroblasts (cell number, actin staining, morphology)", "method": "The effect of 6-furfurylamino-9-(2-tetrahydropyranyl)purine on senescent cells was also examined. An equal number of senescent cells were seeded in separate flasks and then treated with different concentrations of 6-furfurylamino-9-(2-tetrahydropyranyl)purine (0 to 400 μM). Cell numbers were determined after 7 and 14 days of treatment using a Coulter counter after trypsinisation and resuspension of the cells.\nLate passage senescent cells with a life span of more than 95% were also treated with different concentrations of 6-furfurylamino-9-(2-tetrahydropyranyl)purine (0 to 200 μM) to assess age-related changes. The actin staining patterns were examined after three days. […] Less polymerized and diffused patterns of actin staining are generally associated with youthful characteristics of human fibroblasts. Thus, 6-furfurylamino-9-(2-tetrahydropyranyl)purine appears to revert some of the age-related changes in actin organization in senescent cells.\nSenescent human skin fibroblasts were also treated with 6-furfurylamino-9-(2-tetrahydropyranyl)purine (0 to 400 μM) and evaluated for reversion of age-related changes. There were significant differences in the appearance of the cells after 7 and 30 days of treatment. […] Even at higher concentrations (200 and 400 μM), the 6-furfurylamino-9-(2-tetrahydropyranyl)purine-treated cells appeared to be smaller and have less intracellular debris as compared untreated cells."}, "[2]": {"tested_on": "breast carcinoma MCF-7", "experiment": "in vitro cytotoxic activity, Calcein AM microtiter assay", "conditions": "Homo sapiens, MCF7; 72 hours; highest concentration 166.7 μM", "method": "(§1) In vitro cytotoxic activity of several of the 6,9-disubstituted purine derivatives of this invention was determined using a microtiter assay with Calcein AM and a panel of cell lines of different histogenetic and species origin; kinetin was also examined as a control. Because only metabolically active cells cleave Calcein AM (tetraacetoxymethyl ester of calcein), the intracellular concentration of calcein corresponds to the number of vital cells in the culture.\n(§2) The following cell lines were used: human osteosarcoma (HOS); breast carcinoma MCF-7; human myeloid leukemia K-562; and mouse fibroblasts NIH3T3. The cells were maintained in Nunc/Corning 80 cm^2 plastic tissue culture flasks and cultured in cell culture medium (DMEM with 5 g/l glucose, 2 mM glutamine, 100 U/ml penicillin, 100 μg/ml streptomycin, 10% fetal calf serum, and sodium bicarbonate).\n(§3) The cell suspensions were prepared and diluted according to the particular cell type and the expected target cell density (2.500-30.000 cells per well based on cell growth characteristics) were added by pipette (80 μl) into 96/well microtiter plates. Inoculates were allowed a pre-incubation period of 24 hours at 37° C. and 5% CO2 for stabilization. Four-fold dilutions of the intended test concentration were added at time zero in 20 μl aliquots to the microtiter plate wells. The test compounds were generally evaluated at six 4-fold dilutions. The highest well concentration used in the present study was 166.7 μM. All samples were examined in triplicates. Incubations of cells with the tested compounds was for 72 hours at 37° C., in 5% CO2 atmosphere and 100% humidity. At the end of the incubation period, Calcein AM was added to a final concentration of 1 μg/ml incubated for 1 hour. Fluorescence intensity (FI) was measured with a Labsystem FIA Reader Fluoroscan Ascent (UK). The cell survival (GI50) was calculated using the following equation: GI50=([…])/(mean FIcontrol well−mean FIblank)×100%. The GI50 value, the drug concentration lethal to 50% of the cells, was calculated from the obtained dose response curves."}, "[3]": {"tested_on": "human myeloid leukemia K-562", "experiment": "in vitro cytotoxic activity, Calcein AM microtiter assay", "conditions": "K562, 72 hours, highest concentration 166.7 μM", "method": "as §1, §2, §3"}, "[4]": {"tested_on": "human osteosarcoma (HOS)", "experiment": "in vitro cytotoxic activity, Calcein AM microtiter assay", "conditions": "72 hours, highest concentration 166.7 μM", "method": "as §1, §2, §3"}, "[5]": {"tested_on": "mouse fibroblasts NIH3T3", "experiment": "in vitro cytotoxic activity, Calcein AM microtiter assay", "conditions": "NIH3T3, 72 hours, highest concentration 166.7 μM, read-out: GI50 NIH-3T3", "method": "as §1, §2, §3"}, "[6]": {"tested_on": "Human forskin fibroblasts (cell line BJ)", "experiment": "in vitro cytotoxic activity, MTT assay", "conditions": "72 hours; BJ fibroblasts at middle passage", "method": "In vitro cytotoxic activity of several of the 6,9-disubstituted purine derivatives of this invention against human diploid fibroblasts was determined by standard MTT assay optimized for 96-well plates. The assay is based on spectrofotometric measurement of the product of metabolic conversion of MTT by mitochondria of living cells.\nHuman forskin fibroblasts (cell line BJ) at middle passage were maintained in 75 cm^2 plastic tissue culture flasks and cultured in cell culture medium (DMEM with 5 g/l glucose, 2 mM glutamine, 100 U/ml penicillin, 100 μg/ml streptomycin, 10% fetal calf serum, and sodium bicarbonate).\nAbout 5,000 cells were seeded per well of the 96-well plate. After 24 hours the cell culture medium was replaced with the cell culture medium containing a test compound. The test compounds were evaluated at six 2-fold dilutions. The highest concentration used in the present study was usually 200 μM. In the case of compounds with limited solubility in the culture medium the highest concentration was adjusted. Every test compound was examined in five replicates. Cells with the test compounds were incubated for 72 hours at 37° C. in 5% CO2 atmosphere and 100% humidity. At the end of the incubation period, the culture medium was replaced with the cell culture medium containing MTT (0.5 mg/ml) and cells were incubated for another 3 hours. The formazan formed was solubilized by DMSO and absorbance at 570 nm was measured. Ability of the tested compounds to inhibit MTT reducing activity of the cells was calculated as IC=(Acompound exposed well−mean Ablank)/(mean Acontrol well−meanAblank)×100%. IC10, the drug concentration causing 10% decrease in MTT reducing activity, was calculated from the obtained dose response curves."}, "[7]": {"tested_on": "normal, human-derived epidermal keratinocytes (NHEK)", "experiment": "Epiderm MTT Viablity Assay", "method": "Using MatTek Corporation's EpiDerm™ System (consisting of normal, human-derived epidermal keratinocytes (NHEK) which have been cultured to form a multilayered, highly differentiated model of the human epidermis), it was determined that 6-furfurylamino-9-(2-tetrahydropyranyl)purine would be expected to be classified as non-irritating."}}, "data": [{"smiles": "c1coc(CNc2ncnc3c2ncn3C2CCCCO2)c1", "note": "(centres unmarked) [6-furfurylamino-9-(2-tetrahydropyranyl)purine]", "values": [{"measurement": "cell number of senescent cells", "setting": "[1]; 0 to 400 μM, after 7 days", "result": "No negative effects"}, {"measurement": "appearance of the cells (reversion of age-related changes)", "setting": "[1]; 0 to 400 μM, after 30 days of treatment", "result": "younger looking in terms of becoming thinner and arranged in arrays"}, {"measurement": "survival of senescent cells", "setting": "[1]; 200 μM or more, after 14 days", "result": "slight negative effect on the survival of senescent cells"}, {"measurement": "actin staining pattern", "setting": "[1]; late passage senescent cells, 0 to 200 μM, after three days", "result": "changed the actin staining pattern from a highly polymerized pattern to a less polymerized filament pattern"}, {"measurement": "cell number of senescent cells", "setting": "[1]; lower concentrations (below 200 μM), after 14 days", "result": "no negative effects"}, {"measurement": "GI50", "setting": "[2]", "result": "> 167", "unit": "µM"}, {"measurement": "GI50", "setting": "[3]", "result": "> 167", "unit": "µM"}, {"measurement": "GI50", "setting": "[4]", "result": "> 167", "unit": "µM"}, {"measurement": "GI50", "setting": "[5]", "result": "> 167", "unit": "µM"}, {"measurement": "IC10 (concentration causing 10% decrease in MTT reducing activity)", "setting": "[6]", "result": ">200", "unit": "µmol/L"}, {"measurement": "irritation classification, EpiDerm System", "setting": "[7]", "result": "non-irritating"}]}]}
